Assay results as given in patent publication US12116592B2, “Methods and compositions for ex vivo expansion of very small embryonic-like stem cells (VSELs)” (University of Louisville Research Foundation, Inc., priority 2016, dated 2024).

Legend:
[1] = test system: Sca-1^+/lin^−/CD45^− murine bone marrow VSELs; test: Ex vivo expansion of murine VSELs; format: cell-based; conditions: 1 mM VPA with 10 U/ml LH and 10 U/ml FSH in D-MEM, 5% FBS; feeder-free; at 2 months
Experimental: Murine VSELs were isolated by multi-parameter sorting using a MOFLOW™ XDP sorter (Beckman Coulter, Inc., Indianapolis, Indiana, United States of America). Highly purified Sca-1^+/lin^−/CD45^− murine bone marrow VSELs were cultured in D-MEM culture medium containing 5% fetal bovine serum (FBS) supplemented with 10 U/ml luteinizing hormone (LH) and 10 U/ml follicle-stimulating hormone (FSH) in a humidified incubator maintained at 37° C. with 5% CO2. VSELs were exposed to the HDAC inhibitor valproic acid (VPA; Sigma Aldrich, St. Louis, Missouri, United States of America) at a concentration of 1 mM. The cultures were supplemented with fresh LH and FSH every third day. The cultures were maintained for approximately two (2) months.

[2] = test system: Human UCB-derived VSELs (CD133^+/lin^−/CD45^− cells); test: Ex vivo expansion of human UCB-derived VSELs; format: cell-based; conditions: VPA (1 mM), LH (10 U/ml), FSH (10 U/ml), TGFβ (10 ng/ml) in D-MEM, 10% FBS; at 2 months
Experimental: Human UCB-derived VSELs were isolated by multi-parameter sorting using a MOFLOW™ XDP sorter (Beckman Coulter, Inc.). Small CD133^+/lin^−/CD45^− cells were plated in 96 well plates in D-MEM medium supplemented with 10% FBS in the presence of VPA (1 mM), LH (10 U/ml), FSH (10 U/ml) and transforming growth factor beta (TGFβ; 10 ng/ml). Cells were cultured for two (2) months in a humidified incubator at 37° C., 5% CO2. Fresh medium was added every 7 days.

Question: Which “average expansion of sorted purified murine VSELs as compared to day 0” value [1] does the source give for `CCCC(CCC)C(=O)O` [VPA, valproic acid] here?
Answer: 21±3 fold

Question: And the “average expansion of sorted purified human VSELs as compared to day 0” value [2]?
Answer: 32±5 fold
